From the supplement of paper PMC10307832

What was measured:
Test in all cases: relative viability (nuclei count vs DMSO), 5 days (fraction); higher = more cells survive
GSK126 + Tozasertib = compound: CC[C@H](C)N1C=C(C2=C(C=C(C=C21)C3=CN=C(C=C3)N4CCNCC4)C(=O)NCC5=C(C=C(NC5=O)C)C)C [GSK126] + Cc1cc(Nc2cc(N3CCN(C)CC3)nc(Sc3ccc(NC(=O)C4CC4)cc3)n2)n[nH]1 [Tozasertib] (partner 0.1 µM)
In short: (§1)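 Lung cancer cell lines in 1536-well plates got either a single drug or a fixed anchor-drug dose together with five library-drug doses (not always all listed) in √10 steps, by pin tool, on the day after seeding. Nuclei were counted after 5 days, and relative viability is the treated-to-vehicle ratio of nuclei counts. Values are medians of duplicate plates.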

MLN4924 + Decitabine = compound: NS(=O)(=O)OC[C@@H]1C[C@@H](n2ccc3c(N[C@H]4CCc5ccccc54)ncnc32)C[C@@H]1O [MLN4924] + Nc1ncn([C@H]2C[C@H](O)[C@@H](CO)O2)c(=O)n1 [Decitabine] (partner 2 µM)
In short: as §1

MLN4924 + Palbociclib = compound: NS(=O)(=O)OC[C@@H]1C[C@@H](n2ccc3c(N[C@H]4CCc5ccccc54)ncnc32)C[C@@H]1O [MLN4924] + CC(=O)c1c(C)c2cnc(Nc3ccc(N4CCNCC4)cn3)nc2n(C2CCCC2)c1=O [Palbociclib] (partner 0.5 µM)
In short: as §1

MLN4924 + Alpelisib = compound: NS(=O)(=O)OC[C@@H]1C[C@@H](n2ccc3c(N[C@H]4CCc5ccccc54)ncnc32)C[C@@H]1O [MLN4924] + Cc1nc(NC(=O)N2CCC[C@H]2C(N)=O)sc1-c1ccnc(C(C)(C)C(F)(F)F)c1 [Alpelisib] (partner 2 µM)
In short: as §1

Cell Line | relative viability (GSK126 + Tozasertib; first compound 0.08 µM) | relative viability (GSK126 + Tozasertib; first compound 0.253 µM) | relative viability (GSK126 + Tozasertib; first compound 0.8 µM) | relative viability (GSK126 + Tozasertib; first compound 2.53 µM) | relative viability (GSK126 + Tozasertib; first compound 8 µM) | relative viability (MLN4924 + Decitabine; first compound 0.04 µM) | relative viability (MLN4924 + Decitabine; first compound 0.1265 µM) | relative viability (MLN4924 + Decitabine; first compound 0.4 µM) | relative viability (MLN4924 + Decitabine; first compound 1.265 µM) | relative viability (MLN4924 + Decitabine; first compound 4 µM) | relative viability (MLN4924 + Palbociclib; first compound 0.04 µM) | relative viability (MLN4924 + Palbociclib; first compound 0.1265 µM) | relative viability (MLN4924 + Palbociclib; first compound 0.4 µM) | relative viability (MLN4924 + Palbociclib; first compound 1.265 µM) | relative viability (MLN4924 + Palbociclib; first compound 4 µM) | relative viability (MLN4924 + Alpelisib; first compound 0.04 µM) | relative viability (MLN4924 + Alpelisib; first compound 0.1265 µM) | relative viability (MLN4924 + Alpelisib; first compound 0.4 µM) | relative viability (MLN4924 + Alpelisib; first compound 1.265 µM) | relative viability (MLN4924 + Alpelisib; first compound 4 µM)
ChaGo-K-1 | 0.237 | 0.238 | 0.216 | 0.233 | 0.201 | 0.409 | 0.276 | 0.297 | 0.2 | 0.184 | 0.75 | 0.419 | 0.365 | 0.184 | 0.159 | – | – | – | – | –
SW 900 | 0.577 | 0.534 | 0.635 | 0.632 | 0.51 | – | 0.427 | 0.344 | 0.27 | 0.211 | – | 0.439 | 0.388 | 0.231 | 0.231 | – | – | – | – | –
NCI-H2342 | 0.538 | 0.471 | 0.613 | 0.507 | 0.597 | 0.695 | 0.75 | 0.718 | 0.643 | 0.468 | 0.53 | 0.575 | 0.591 | 0.635 | 0.449 | – | – | – | – | –
NCI-H441 | 0.68 | 0.571 | 0.567 | 0.545 | 0.461 | 0.253 | 0.241 | 0.22 | 0.158 | 0.175 | 0.236 | 0.224 | 0.165 | 0.104 | 0.101 | 0.549 | 0.526 | 0.296 | 0.123 | 0.168
NCI-H3122 | 0.423 | 0.393 | 0.367 | 0.33 | 0.344 | 0.423 | 0.264 | 0.2 | 0.14 | 0.125 | 0.162 | 0.0893 | 0.129 | 0.0849 | 0.0684 | 0.799 | 0.452 | 0.251 | 0.188 | 0.133
HCC-78 | 0.527 | 0.54 | 0.401 | 0.386 | 0.405 | 0.685 | 0.775 | 0.485 | 0.27 | 0.244 | 0.52 | 0.462 | 0.472 | 0.422 | 0.418 | 0.429 | 0.253 | 0.536 | 0.149 | 0.139
HCC-827 | 0.428 | 0.433 | 0.453 | 0.387 | 0.408 | 0.336 | 0.308 | 0.218 | 0.15 | 0.2 | 0.35 | 0.325 | 0.317 | 0.173 | 0.148 | 0.893 | 0.47 | 0.595 | 0.234 | 0.159
Calu-6 | – | – | – | – | – | – | – | – | – | – | – | – | – | – | – | 1.09 | 1.07 | 0.388 | 0.14 | 0.148
